Data published in ChEMBL document CHEMBL4513101, “Naegleria gruberi Pathogen Box compounds screening” (2021).
Calls of active or inactive are those of the source. No stated cut-off is given here; in the data, active = inhibition of 80% or more and inactive = less.

System: Naegleria gruberi
Assay: microbe, parasite or virus in culture
Format: functional
Settings: NEG-M, CONC 10 uM
Description: Growth inhibiting activity of Naegleria gruberi in vitro

Compound | inhibition at 10 µM
N=C(N)Nc1ccc(-c2ccc(-c3ccc(NC(=N)N)cc3Cl)o2)c(Cl)c1 | 24% (not active)
O=C(NC1=NCCS1)c1sc2cc(F)ccc2c1Cl | 34.6% (not active)
O=C(Nc1c(O)cccc1-c1nc2c(C(=O)O)cccc2o1)c1cc(-c2ccccc2)on1 | 18.4% (not active)
CCOc1ccc2cc(-c3nn(CC4CCN(C)CC4)c4ncnc(N)c34)ccc2c1 | 28% (not active)
Cc1nnc(NC(=O)c2cn(-c3ccccc3)nc2-c2ccccc2C)o1 | 34.7% (not active)
Cc1ccc2nc(Cl)c(CNCc3cccs3)cc2c1 | 35.5% (not active)
CC(Oc1cccc(Cl)c1)C(=O)Nc1ccc2oc(-c3ccncc3)nc2c1 (centres undefined) | 35.9% (not active)
Nc1nccc2ccc(Oc3ccncc3)cc12 | 3% (not active)
CNC(=O)C1Cc2ccccc2N1C(=O)Cc1ccc(F)cc1 (centres undefined) | 38% (not active)
Cc1cccc(Cn2ccc(NC(=O)c3ccc4c(c3)OCO4)n2)c1 | 59.7% (not active)
CC(c1cc(Cl)cc(Cl)c1)N(C)c1ncc2c(N)nc(N)nc2n1 (centres undefined) | 11% (not active)
O=C(Nc1ccc2c(c1)B(O)OC2)c1ccccc1C(F)(F)F | 89.8% (active)
Cc1ccc(S(=O)(=O)N2CCN(C(=O)c3cc(-c4ccccc4)n[nH]3)CC2)cc1 | 22.3% (not active)
CS(=O)(=O)c1ccccc1C(=O)N(Cc1ccccc1)c1ccccc1 | 31.8% (not active)
CCc1nn(C)c(C(=O)NCc2ccc(Oc3ccc(C)cc3)cc2)c1Cl [TOLFENPYRAD] | 93.3% (active)
Cn1c(=O)c2c(S(C)(=O)=O)snc2n(C)c1=O | 72.3% (not active)
CCOC(=O)NC(=O)c1ccsc1NC(=O)c1nc2ccccc2s1 | 89.3% (active)
CC1=Nc2ccc(Cl)cc2C(c2ccccc2)N1CCNC(=O)CN(C)C (centres undefined) | 4.7% (not active)
COc1cccc(-c2cc3c(Nc4cccnc4)nccc3[nH]2)c1 | 10% (not active)
CN1CCC(NCc2cccc(-c3ccc(S(=O)(=O)NCc4ccccc4)cc3)c2)CC1 | 14.4% (not active)
CC(C)n1nc(-c2cc3c(Cl)cccc3[nH]2)c2c(N)ncnc21 | 72.2% (not active)
Cc1cc(NCC(C)C)c2[nH]nc(-c3ccccc3)c2n1 | 25.8% (not active)

Compound | inhibition at 10 µM
COc1cc(C2=NCCN2)ccc1-c1cn(-c2cccc(C3=NCCN3)c2)nn1 | 20.1% (not active)
Cc1nc(-c2ccccn2)nc(N2CCC(Cc3ccccc3)C2)c1Cl (centres undefined) | 38.3% (not active)
COc1cccc(OC)c1C(=O)Nc1ccc(Cl)c(-c2nc3ccccc3s2)c1 | 19.2% (not active)
CO[C@H]1/C=C\O[C@@]2(C)Oc3c(C)c(O)c4c(O)c(/c(=C/NN5CCN(C)CC5)c(O)c4c3C2=O)=N\C(=O)/C(C)=C\C=C/[C@H](C)[C@H](O)[C@@H](C)[C@@H](O)[C@@H](C)[C@H](OC(C)=O)[C@@H]1C | 0% (not active)
COc1cccc(NC(=O)c2c(NC(=O)c3cccnc3)sc3c2CCC3)c1 | 62.6% (not active)
O=C(Nc1ccccc1-c1nc2c(C(=O)O)cccc2o1)c1ccccc1 | 39.5% (not active)
FC(F)(F)c1cccc(-c2nc3c(NCc4ccncc4)nccc3[nH]2)c1 | 25.1% (not active)
CCCCN(CCCC)c1c(C#N)cc(S(=O)(=O)Nc2ccccc2)cc1C#N | 23.9% (not active)
Cc1cc(C)n(-c2ccc(NC(=O)C3CCN(Cc4cnc(C)s4)CC3)cc2)n1 | 6.1% (not active)
CNc1cc(C)nc(C2CN(C(=O)c3n[nH]c4ccccc34)CCO2)c1 (centres undefined) | 24.2% (not active)
Cc1cc(OCC(=O)NCc2ccccc2)c2cc(Br)ccc2n1 | 22.1% (not active)
COc1ccc(-c2cnc3cnc(-c4cccc(OC(C)C)c4)cn23)cc1 | 9.4% (not active)
Cc1ccccc1C(=O)N1N=C(Nc2ccccc2)SC1(C)C | 12.6% (not active)
N#CCN(CCCCN1CCN(c2ccc(F)cc2)CC1)C(=O)OCc1ccccc1 | 21.3% (not active)
c1ccc(Oc2ccc(-c3cc(C4CCOCC4)[nH]n3)cc2)cc1 | 34.2% (not active)
O=C1N(Cc2cc3ccccc3s2)CC2CN(Cc3ccccc3)CCN12 (centres undefined) | 34.3% (not active)
Cc1nc(-c2cccc(NCc3ccccc3)c2)[nH]c1C | 8.1% (not active)
CNc1nnc(Sc2cnn(-c3ccccc3)c(=O)c2Cl)s1 | 50% (not active)
CCc1ccc(S(=O)(=O)Nc2cc(CN3CCN(CCC(C)C)CC3)ccc2C)cc1 | 48.7% (not active)
c1csc(-c2cnc3sc(NCC4CCOCC4)nn23)c1 | 39.9% (not active)
CCC(NC(=O)c1ccccc1NC(=O)c1ccc(C)cc1)C(=O)OC (centres undefined) | 4.8% (not active)
COC(=O)C1=C(C)NC(C)=C(C(=O)OC(C)C)C1c1cccc2nonc12 (centres undefined) [ISRADIPINE] | 48.7% (not active)

Compound | inhibition at 10 µM
CNc1snc(C)c1C(=O)NCCOc1ccc(OC)cc1 | 40.5% (not active)
CCC(C)NC(=O)c1ccc(NC(=O)C2(c3ccccc3)CCCC2)cc1 (centres undefined) | 0.4% (not active)
COc1ccc(N(CCc2cccc(C)n2)C(C)=O)cc1 | 19.6% (not active)
CC(=O)NC[C@@H]1CN(c2ccc(N3CCOCC3)c(F)c2)C(=O)O1 | 20.1% (not active)
C[C@]1(O)C[C@@H](c2nc(-c3ccc4ccc(-c5ccccc5)nc4c3)c3c(N)nccn32)C1 [LINSITINIB] | 59.4% (not active)
COc1cc(NC(=O)Cc2nn(C)c(=O)c3ccccc23)ccc1Cl | 90.7% (active)
O=C(c1ccc(NCCO)cc1)C1C[C@H]1c1ccc(Cl)cc1 (some centres undefined) | 28.7% (not active)
CNC(=O)C1Cc2c([nH]c3cc(Cl)ccc23)C2(CCN(CCc3ccccc3)CC2)N1 (centres undefined) | 11.5% (not active)
CCCn1c(NC(=O)c2ccc3ccccc3n2)nc2ccccc21 | 22.6% (not active)
CC(C)(C)C(O)C(Oc1ccc(-c2ccccc2)cc1)n1cncn1 (centres undefined) [BITERTANOL] | 81% (active)
O=C(Nc1nc(-c2ccccn2)cs1)C1CC1c1ccccc1F (centres undefined) | 46.3% (not active)
CCn1cnc2c(Nc3cc(F)cc(F)c3)nc(C#N)nc21 | 83.2% (active)
Clc1ccc(CCNc2cc(-c3ccccc3)nc3ncnn23)cc1 | 44.5% (not active)
NCCCC(N)(C(=O)O)C(F)F (centres undefined) [EFLORNITHINE] | 33.6% (not active)
O=C(Nc1ccc(C(F)(F)F)c(C(F)(F)F)c1)c1cc(Cl)ccc1O | 98.5% (active)
FC(F)(F)c1cc(NCCc2ccccc2)nc(-c2ccccn2)n1 | 24.6% (not active)
N#Cc1nc(-c2ccccc2)oc1S(=O)(=O)c1ccc(Cl)cc1 | 9.4% (not active)
CO/N=C(\C(=O)OC)c1ccccc1CO/N=C(\C)c1cccc(C(F)(F)F)c1 | 43.9% (not active)
COc1ccc(-c2cc(NC(=O)c3ccc(F)cc3Cl)ccc2OC)cc1 | 38.4% (not active)
Cn1ccnc1CNCCS(=O)(=O)c1cccc(Nc2ccc(-c3cccc(F)c3)cn2)c1 | 26.5% (not active)
